According to the supplement of paper PMC10307832:

Legend:
Test in all cases: relative viability (nuclei count vs DMSO), 5 days (fraction); higher = more cells survive
Pazopanib + Foretinib = compound: Cc1ccc(Nc2nccc(N(C)c3ccc4c(C)n(C)nc4c3)n2)cc1S(N)(=O)=O [Pazopanib] + COc1cc2c(Oc3ccc(NC(=O)C4(C(=O)Nc5ccc(F)cc5)CC4)cc3F)ccnc2cc1OCCCN1CCOCC1 [Foretinib] (partner 0.25 µM)
Method in brief: (§1)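 Cells from lung cancer lines were seeded into 1536-well plates and, one day later, dosed by pin tool. Treatments were either a single drug or a fixed dose of an anchor drug with five library-drug doses (not always all listed) in √10 steps. After 5 days, nuclei were stained in a one-step fixation (final 0.05% Triton X-100, 1% formaldehyde, 1 ug/ml Hoechst) and counted on 4× images, and relative viability is the treated-to-vehicle nuclei ratio, as the median of duplicate plates.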

Ponatinib + Dasatinib = compound: Cc1ccc(C(=O)Nc2ccc(CN3CCN(C)CC3)c(C(F)(F)F)c2)cc1C#Cc1cnc2cccnn12 [Ponatinib] + Cc1nc(Nc2ncc(C(=O)Nc3c(C)cccc3Cl)s2)cc(N2CCN(CCO)CC2)n1 [Dasatinib] (partner 0.075 µM)
Method in brief: as §1

Pazopanib + Trametinib = compound: Cc1ccc(Nc2nccc(N(C)c3ccc4c(C)n(C)nc4c3)n2)cc1S(N)(=O)=O [Pazopanib] + CC(=O)Nc1cccc(-n2c(=O)n(C3CC3)c(=O)c3c(Nc4ccc(I)cc4F)n(C)c(=O)c(C)c32)c1 [Trametinib] (partner 0.02 µM)
Method in brief: as §1

Pazopanib + Pictilisib = compound: Cc1ccc(Nc2nccc(N(C)c3ccc4c(C)n(C)nc4c3)n2)cc1S(N)(=O)=O [Pazopanib] + CS(=O)(=O)N1CCN(Cc2cc3nc(-c4cccc5[nH]ncc45)nc(N4CCOCC4)c3s2)CC1 [Pictilisib] (partner 1 µM)
Method in brief: as §1

| Cell Line | relative viability (Pazopanib + Foretinib; first compound 0.01 µM) | relative viability (Pazopanib + Foretinib; first compound 0.03162 µM) | relative viability (Pazopanib + Foretinib; first compound 0.1 µM) | relative viability (Pazopanib + Foretinib; first compound 0.3162 µM) | relative viability (Pazopanib + Foretinib; first compound 1 µM) | relative viability (Ponatinib + Dasatinib; first compound 0.002 µM) | relative viability (Ponatinib + Dasatinib; first compound 0.006325 µM) | relative viability (Ponatinib + Dasatinib; first compound 0.06325 µM) | relative viability (Ponatinib + Dasatinib; first compound 0.2 µM) | relative viability (Pazopanib + Trametinib; first compound 0.01 µM) | relative viability (Pazopanib + Trametinib; first compound 0.03162 µM) | relative viability (Pazopanib + Trametinib; first compound 0.1 µM) | relative viability (Pazopanib + Trametinib; first compound 0.3162 µM) | relative viability (Pazopanib + Trametinib; first compound 1 µM) | relative viability (Pazopanib + Pictilisib; first compound 0.01 µM) | relative viability (Pazopanib + Pictilisib; first compound 0.03162 µM) | relative viability (Pazopanib + Pictilisib; first compound 0.1 µM) | relative viability (Pazopanib + Pictilisib; first compound 0.3162 µM) | relative viability (Pazopanib + Pictilisib; first compound 1 µM) |
| --- | --- | --- | --- | --- | --- | --- | --- | --- | --- | --- | --- | --- | --- | --- | --- | --- | --- | --- | --- |
| NCI-H650 | 1.02 | 1.11 | 0.995 | 0.898 | 0.818 | 0.37 | 0.456 | 0.492 | 0.411 | 0.942 | 0.918 | 0.984 | 1.13 | 1.13 | 0.789 | 0.838 | 0.92 | 0.836 | 0.79 |
| NCI-H1395 | 0.947 | 1.07 | 1.01 | 0.931 | 0.968 | 0.392 | 0.404 | 0.427 | 0.393 | 0.833 | 1.14 | 1.05 | 1.01 | 0.952 | 0.534 | 0.746 | 0.685 | 0.661 | 0.674 |
| NCI-H358 | 0.726 | 0.91 | 0.838 |  | 0.918 | 0.185 | 0.184 | 0.236 | 0.187 | 0.145 | 0.134 | 0.124 | 0.167 | 0.141 | 0.337 | 0.333 | 0.297 | 0.415 | 0.395 |
| NCI-H2085 | 0.972 | 1.06 | 1.01 | 0.96 | 1.11 | 0.268 | 0.261 | 0.221 | 0.237 | 0.44 | 0.518 | 0.568 | 0.574 | 0.592 | 0.413 | 0.463 | 0.47 | 0.429 | 0.443 |
| NCI-H838 | 0.996 | 1.02 | 1.02 | 1.08 | 1.18 | 0.275 | 0.261 | 0.305 | 0.258 | 0.465 | 0.558 | 0.483 | 0.599 | 0.594 | 0.382 | 0.476 | 0.497 | 0.564 | 0.589 |
| NCI-H460 | 0.942 | 1.07 | 1.01 | 1.03 | 0.997 | 0.45 | 0.536 | 0.584 | 0.462 | 0.087 | 0.16 | 0.283 | 0.108 | 0.287 | 0.275 | 0.339 | 0.345 | 0.429 | 0.407 |
| LOU-NH91 | 0.898 | 0.92 | 0.945 | 0.967 | 0.948 | 0.541 | 0.581 | 0.548 | 0.525 | 0.721 | 0.769 | 0.848 | 0.795 | 0.822 | 0.501 | 0.534 | 0.502 | 0.568 | 0.543 |
| NCI-H322M | 0.908 | 1.25 | 0.921 | 0.966 | 0.93 | 0.263 | 0.244 | 0.232 | 0.253 | 0.513 | 0.471 | 0.482 | 0.452 | 0.489 | 0.498 | 0.564 | 0.582 | 0.571 | 0.54 |
| NCI-H520 | 0.675 | 1.02 | 0.688 | 0.799 | 0.936 | 0.205 | 0.201 | 0.162 | 0.139 | 0.606 | 0.78 | 0.644 | 0.751 | 0.6 |  | 0.302 | 0.335 | 0.278 | 0.254 |
| NCI-H661 | 0.996 | 1.08 | 1.04 | 1 | 0.995 | 0.786 | 0.965 | 0.987 | 0.819 | 0.518 | 0.589 | 0.621 | 0.614 | 0.534 | 0.353 | 0.417 | 0.366 | 0.376 | 0.446 |
| NCI-H727 | 0.698 | 0.981 | 1.04 | 1.23 | 0.913 | 0.322 | 0.497 | 0.338 | 0.565 | 0.395 |  | 0.393 | 0.359 | 0.4 | 0.356 | 0.244 | 0.497 | 0.393 | 0.483 |
| NCI-H1944 |  | 0.94 | 0.905 | 0.861 | 0.986 | 0.218 | 0.21 | 0.221 | 0.202 | 0.389 | 0.387 | 0.407 | 0.453 | 0.433 | 0.303 | 0.346 | 0.344 | 0.39 | 0.358 |
| NCI-H1734 | 0.829 | 0.948 | 0.873 | 0.893 | 0.926 | 0.496 | 0.469 | 0.42 | 0.377 | 0.669 | 0.697 | 0.671 | 0.612 | 0.626 | 0.385 | 0.448 | 0.437 | 0.53 | 0.461 |
| LXF-289 | 1.06 | 1.06 | 1.08 | 0.99 | 0.996 | 0.26 | 0.275 | 0.26 | 0.195 | 0.691 | 0.675 | 0.717 | 0.71 | 0.706 | 0.701 | 0.784 | 0.778 | 0.735 | 0.822 |
| H3255 | 0.625 | 0.838 | 0.794 | 0.84 | 0.939 | 0.326 | 0.317 | 0.387 | 0.367 | 0.512 | 0.564 | 0.617 | 0.739 | 0.731 | 0.452 | 0.454 | 0.427 | 0.417 | 0.582 |
| 201T | 1.13 | 1.09 | 1.1 | 1.15 | 0.996 | 0.61 | 0.593 | 0.593 | 0.461 | 0.719 | 0.729 | 0.737 | 0.783 | 0.705 | 0.602 | 0.603 | 0.709 | 0.742 | 0.695 |
| NCI-H2126 | 1.16 | 1.18 | 1.26 | 1.06 | 1.06 | 0.554 | 0.564 | 0.65 | 0.531 | 0.506 | 0.503 | 0.599 | 0.563 | 0.577 | 0.443 | 0.472 | 0.559 | 0.444 | 0.531 |
